Molecular target: Estrogen receptor (Homo sapiens, UniProt Q92731+P03372)
Details: mcf-7
Description: In vitro inhibition of estrogen-stimulated MCF-7 cell proliferation

| SMILES | IC50 |
| --- | --- |
| COc1ccc(-c2sc3cc(OC)ccc3c2C(=O)c2ccc(S(=O)(=O)CCN3CCCCC3)cc2)cc1 | > 1000 nM |
| O=C(c1ccc(NCCN2CCCCC2)cc1)c1c(-c2ccc(O)cc2)sc2cc(O)ccc12 | 2 nM |
| O=C(c1ccc(CCCN2CCCCC2)cc1)c1c(-c2ccc(O)cc2)sc2cc(O)ccc12 | 10 nM |
| O=C(c1ccc(S(=O)(=O)CCN2CCCCC2)cc1)c1c(-c2ccc(O)cc2)sc2cc(O)ccc12 | 30 nM |
| CN(CCN1CCCCC1)c1ccc(C(=O)c2c(-c3ccc(O)cc3)sc3cc(O)ccc23)cc1 | 10 nM |
| COc1ccc(-c2sc3cc(OC)ccc3c2C(=O)c2ccc(CCCN3CCCCC3)cc2)cc1 | 1000 nM |
| O=C(c1ccc(SCCN2CCCCC2)cc1)c1c(-c2ccc(O)cc2)sc2cc(O)ccc12 | 0.9 nM |

— ChEMBL document CHEMBL1131940 (Bioorg Med Chem Lett, 1999)
